{
  "source": "patent US20160287621A1",
  "about": "“BIOLOGICAL PRODUCTION OF NAD PRECURSORS AND ANALOGS” (PRESIDENT AND FELLOWS OF HARVARD COLLEGE, priority 2013, published 2016)",
  "key": {"[1]": {"tested_on": "Human dermal fibroblasts (HDFa)", "assay": "NAD+ levels in human dermal fibroblasts treated for 24 hrs", "format": "cell-based", "experimental": "A and B) Human dermal fibroblasts (HDFa) were treated with various concentration of NMN extract or pure NMN from Sigma (St. Louis, Mo.) respectively for 24 hrs and NAD+ levels were determined.\nA) and B) Human dermal fibroblasts (HDFa) were treated with 50 μM of pure NMN and different concentration of Folate or S-adenosyl-L-methionine (SAM) respectively for 24 hrs and NAD^+ levels were determined.\nThe effect of pure NMN and partially purified NMN extract on the NAD^+ level in cells was investigated. Briefly, human dermal fibroblasts (HDFa) were treated with varying concentrations of NMN extract or pure NMN for 24 hours and NAD^+ levels were determined. Pure NMN was obtained from Sigma. Partially purified NMN extract was obtained using the methods described above."}, "[2]": {"settings": "cigarette smokers, small clinical trial; cited from earlier work"}},
  "data": [
    {"smiles": "C[S+](CC[C@H](N)C(=O)O)C[C@H]1O[C@@H](n2cnc3c(N)ncnc32)[C@H](O)[C@@H]1O", "note": "(stereo partly drawn) [SAM, S-adenosyl-L-methionine]", "values": [
      {"measurement": "effect for raising NAD+ levels in combination with NMN", "setting": "[1]; 50 μM pure NMN plus different concentrations of Folate or SAM, 24 hrs", "value": "synergistic effect"}
    ]},
    {"smiles": "NC(=O)c1ccc[n+]([C@@H]2O[C@H](COP(=O)([O-])O)[C@@H](O)[C@H]2O)c1", "note": "[Pure NMN, nicotinamide mononucleotide]", "values": [
      {"measurement": "NAD+ levels in cells", "setting": "[1]; varying concentrations, 24 hours", "value": "increased levels of NAD^+"}
    ]},
    {"smiles": "Cc1nc(-c2cccnc2)sc1C(=O)Nc1ccccc1-c1cn2c(CN3CCOCC3)csc2n1", "note": "[SRT2104]", "values": [
      {"measurement": "serum lipid profile (total cholesterol, LDL and triglycerides)", "setting": "[2]", "value": "improved the serum lipid profile"}
    ]}
  ]
}
